The results in this text go back to ChEMBL document CHEMBL1126428, “Inhibitors of myo-inositol monophosphatase unrelated to the enzyme substrate” (Bioorg Med Chem Lett, 1992).

Structures are written as SMILES.

The test addresses T1, Inositol monophosphatase 1 (Bos taurus, UniProt P20456).
T1 sequence (P20456 whole entry): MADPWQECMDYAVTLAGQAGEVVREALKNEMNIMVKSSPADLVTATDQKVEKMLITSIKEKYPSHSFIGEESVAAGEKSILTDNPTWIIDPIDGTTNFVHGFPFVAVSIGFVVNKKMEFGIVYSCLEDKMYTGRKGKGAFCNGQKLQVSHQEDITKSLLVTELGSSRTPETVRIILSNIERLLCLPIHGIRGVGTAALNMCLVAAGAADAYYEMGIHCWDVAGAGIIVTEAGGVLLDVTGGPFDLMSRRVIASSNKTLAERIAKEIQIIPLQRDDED
Briefly: Concentration required for 50% inhibition of Inositol monophosphatase.
Take `O=P(O)(O)C(O)(Cc1ccc(Cl)cc1Cl)P(=O)(O)O`: the IC50 turned out to be 23 µM. In other words, the double-digit micromolar range. In turn, `COc1ccc(C(O)(P(=O)(O)O)P(=O)(O)O)cc1` returned an IC50 of 40 µM. In turn, `O=P(O)(O)C(O)(c1ccccc1)P(=O)(O)O` displayed a concentration for half-maximal inhibition (IC50) of 29 µM. Consider `O=P(O)(O)C(O)(c1ccc(Oc2cccc3c2CCCC3)cc1)P(=O)(O)O`, for which the IC50 was 0.61 µM. The figure for `O=P(O)(O)C(O)(c1ccc(Cl)cc1)P(=O)(O)O` is 36 µM; for `CN(C)c1ccc(C(O)(P(=O)(O)O)P(=O)(O)O)cc1` it is 140 µM.

In the case of `O=P(O)(O)C(O)(Cc1ccccc1)P(=O)(O)O`, the IC50 was 38 µM. Compound `CC(O)(P(=O)(O)O)P(=O)(O)O` [ETIDRONIC ACID] came in with a concentration for half-maximal inhibition (IC50) of 110 µM.
